Test results taken from ChEMBL document CHEMBL5120849, “Identification of novel and potent PROTACs targeting FAK for non-small cell lung cancer: Design, synthesis, and biological study” (Eur J Med Chem, 2022).

Experiments:
A549 [1] = test: cells; details: Homo sapiens, A549, 72 h
A549 [2] = test: Inhibition of cell migration in human A549 cells assessed as wound recovery at 0.2 uM measured after 24 hrs by inverted microscopic analysis (reference value: 28.2 %); assay type: functional; design: scale not given: the % may be the effect or the level left
A549 [3] = test: Inhibition of cell migration in human A549 cells assessed as wound recovery at 0.6 uM measured after 24 hrs by inverted microscopic analysis (reference value: 28.2 %); assay type: functional; design: scale not given: the % may be the effect or the level left
A549 [4] = test: Inhibition of cell migration in human A549 cells assessed as wound recovery at 1.8 uM measured after 24 hrs by inverted microscopic analysis (reference value: 28.2 %); assay type: functional; design: scale not given: the % may be the effect or the level left
A549 [5] = test: Inhibition of cell migration in human A549 cells assessed as wound recovery at 0.2 uM measured after 72 hrs by inverted microscopic analysis (reference value: 53.4 %); assay type: functional; design: scale not given: the % may be the effect or the level left
A549 [6] = test: Inhibition of cell migration in human A549 cells assessed as wound recovery at 0.6 uM measured after 72 hrs by inverted microscopic analysis (reference value: 53.4 %); assay type: functional; design: scale not given: the % may be the effect or the level left
A549 [7] = test: Inhibition of cell migration in human A549 cells assessed as wound recovery at 1.8 uM measured after 72 hrs by inverted microscopic analysis (reference value: 53.4 %); assay type: functional; design: scale not given: the % may be the effect or the level left
A549 [8] = test: Antiinvasive activity in human A549 cells assessed as inhibition of cell invasion by measuring reduction in cell count incubated for 72 hrs by crystal violet staining based transwell assay; assay type: functional; details: dose 0.2-1.8 µM, DDE = dose-dependent effect
[9] = Stability in pooled human plasma assessed as parent compound remaining at 2 uM measured after 10 mins by LC-MS/MS analysis (reference value: 100%); assay type: ADME, cell-free; details: read-out: Stability
[10] = Stability in pooled human plasma assessed as parent compound remaining at 2 uM measured after 30 mins by LC-MS/MS analysis (reference value: 100%); assay type: ADME, cell-free; details: read-out: Stability
[11] = Stability in pooled human plasma assessed as parent compound remaining at 2 uM measured after 60 mins by LC-MS/MS analysis (reference value: 100%); assay type: ADME, cell-free; details: read-out: Stability
[12] = Stability in pooled human plasma assessed as parent compound remaining at 2 uM measured after 120 mins by LC-MS/MS analysis (reference value: 100%); assay type: ADME, cell-free; details: read-out: Stability
[13] = Stability in pooled human plasma assessed as half life at 2 uM measured upto 120 mins by LC-MS/MS analysis; assay type: ADME, cell-free
[14] = Apparent permeability across apical to basolateral side in human Caco-2 cells at 2 uM incubated for 2 hrs by LC-MS/MS analysis; assay type: ADME, cell-based
[15] = Apparent permeability across basolateral to apical side in human Caco-2 cells at 2 uM incubated for 2 hrs by LC-MS/MS analysis; assay type: ADME, cell-based

CNC(=O)c1ccccc1Nc1nc(Nc2ccc(N3CCN(CCCCC(=O)NCCNc4cccc5c4C(=O)N(C4CCC(=O)NC4=O)C5=O)CC3)cc2OC)ncc1Cl (configuration not stated)
IC50 (A549 [1]): 4010 nM

CNC(=O)c1ccccc1Nc1nc(Nc2ccc(N3CCN(CCCCCCCCC(=O)Nc4cccc5c4C(=O)N(C4CCC(=O)NC4=O)C5=O)CC3)cc2OC)ncc1Cl (configuration not stated)
IC50 (A549 [1]): 1350 nM

CNC(=O)c1ccccc1Nc1nc(Nc2ccc(N3CCN(CCCCCC(=O)NCCNc4cccc5c4C(=O)N(C4CCC(=O)NC4=O)C5=O)CC3)cc2OC)ncc1Cl (configuration not stated)
IC50 (A549 [1]): 310 nM

CNC(=O)c1ccccc1Nc1nc(Nc2ccc(N3CCN(CCCCC(=O)Nc4cccc5c4C(=O)N(C4CCC(=O)NC4=O)C5=O)CC3)cc2OC)ncc1Cl (configuration not stated)
Activity (A549 [2]): 13.7% | Activity (A549 [3]): 11.1% | Activity (A549 [4]): 3.6% | Activity (A549 [5]): 42.4% | Activity (A549 [6]): 33.3% | Activity (A549 [7]): 21.7% | Activity (A549 [8]): Dde | remaining at 10 min, 2 µM [9]: 112% | remaining at 0.5 h, 2 µM [10]: 96.6% | remaining at 1 h, 2 µM [11]: 98.3% | remaining at 2 h, 2 µM [12]: 86.2% | half-life at 2 µM [13]: > 289 min | Papp A→B at 2 h, 2 µM [14]: 1.4 ×10⁻⁶ cm/s | Papp B→A at 2 h, 2 µM [15]: 4.7 ×10⁻⁶ cm/s | IC50 (A549 [1]): 140 nM

CNC(=O)c1ccccc1Nc1nc(Nc2ccc(N3CCOCC3)cc2OC)ncc1Cl
Activity (A549 [8]): Dde | IC50 (A549 [1]): 1310 nM

CNC(=O)c1ccccc1Nc1nc(Nc2ccc(N3CCN(CCCCC(=O)Nc4cccc5c4CN(C4CCC(=O)NC4=O)C5=O)CC3)cc2OC)ncc1Cl (configuration not stated)
IC50 (A549 [1]): 270 nM

CNC(=O)c1ccccc1Nc1nc(Nc2ccc(N3CCN(CCCCCC(=O)Nc4cccc5c4C(=O)N(C4CCC(=O)NC4=O)C5=O)CC3)cc2OC)ncc1Cl (configuration not stated)
IC50 (A549 [1]): 260 nM

CNC(=O)c1ccccc1Nc1nc(Nc2ccc(N3CCN(CCCCCCC(=O)Nc4cccc5c4C(=O)N(C4CCC(=O)NC4=O)C5=O)CC3)cc2OC)ncc1Cl (configuration not stated)
IC50 (A549 [1]): 790 nM

CNC(=O)c1ccccc1Nc1nc(Nc2ccc(N3CCN(CCCCCCCC(=O)NCCNc4cccc5c4C(=O)N(C4CCC(=O)NC4=O)C5=O)CC3)cc2OC)ncc1Cl (configuration not stated)
IC50 (A549 [1]): 330 nM

CNC(=O)c1ccccc1Nc1nc(Nc2ccc(N3CCN(CCCCCCCCNC(=O)CNc4cccc5c4C(=O)N(C4CCC(=O)NC4=O)C5=O)CC3)cc2OC)ncc1Cl (configuration not stated)
IC50 (A549 [1]): 2250 nM

CNC(=O)c1ccccc1Nc1nc(Nc2ccc(N3CCN(CCCCCCCCCC(=O)Nc4cccc5c4C(=O)N(C4CCC(=O)NC4=O)C5=O)CC3)cc2OC)ncc1Cl (configuration not stated)
IC50 (A549 [1]): 3580 nM

CNC(=O)c1ccccc1Nc1nc(Nc2ccc(N3CCN(CCCCC(=O)Nc4ccc5c(c4)C(=O)N(C4CCC(=O)NC4=O)C5=O)CC3)cc2OC)ncc1Cl (configuration not stated)
IC50 (A549 [1]): 3420 nM
